Activity calls are given as the source filed them. The calls are words filed in the database; no cut-off is given here.
Tests used:
[1] = Agonist activity at marmoset 5HT1A receptor; type: functional, Callithrix jacchus
Rattus norvegicus [2] = organism: Rattus norvegicus; experiment: Ex vivo inhibition of [3H]5-HT uptake at SERT in rat cortical synaptosomes; type: functional; settings: Brain
[3] = biological target: T1, 5-hydroxytryptamine receptor 1A (Rattus norvegicus, UniProt P19327); experiment: Agonist activity at rat 5HT1A receptor; type: functional
T1 sequence (P19327 whole entry): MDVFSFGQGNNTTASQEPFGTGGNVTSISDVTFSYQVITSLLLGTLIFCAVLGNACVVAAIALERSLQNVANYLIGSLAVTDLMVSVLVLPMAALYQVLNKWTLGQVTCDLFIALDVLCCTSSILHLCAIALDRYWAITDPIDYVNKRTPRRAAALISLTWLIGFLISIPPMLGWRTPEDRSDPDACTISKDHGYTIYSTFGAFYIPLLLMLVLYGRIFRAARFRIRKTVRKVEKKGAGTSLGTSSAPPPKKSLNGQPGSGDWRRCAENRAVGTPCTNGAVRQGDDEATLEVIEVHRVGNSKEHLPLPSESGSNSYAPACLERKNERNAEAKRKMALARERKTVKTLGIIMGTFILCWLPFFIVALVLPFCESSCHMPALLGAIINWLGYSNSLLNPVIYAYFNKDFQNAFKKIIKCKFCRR

D(2) dopamine receptor = D(2) dopamine receptor (Homo sapiens, UniProt P14416); experiment: Displacement of [125I]iodosulpiride from human cloned D2 receptor expressed in CHO cells; type: cell-based
Chain of D(2) dopamine receptor (P14416 whole entry): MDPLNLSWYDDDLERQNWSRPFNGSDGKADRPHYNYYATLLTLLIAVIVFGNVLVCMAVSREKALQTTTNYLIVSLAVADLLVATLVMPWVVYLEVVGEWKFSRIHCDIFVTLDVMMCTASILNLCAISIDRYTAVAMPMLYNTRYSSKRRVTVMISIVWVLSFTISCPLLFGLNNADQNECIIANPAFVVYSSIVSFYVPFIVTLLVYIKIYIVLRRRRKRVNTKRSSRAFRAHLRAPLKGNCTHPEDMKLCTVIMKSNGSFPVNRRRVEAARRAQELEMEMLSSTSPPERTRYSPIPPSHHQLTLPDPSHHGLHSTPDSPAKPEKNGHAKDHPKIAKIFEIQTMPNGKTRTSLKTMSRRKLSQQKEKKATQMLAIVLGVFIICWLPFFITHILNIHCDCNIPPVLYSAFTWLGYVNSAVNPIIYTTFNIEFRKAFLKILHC

[4] = Ratio of drug level in brain to blood in rat
[5] = biological target: 5-hydroxytryptamine receptor 1D (Homo sapiens, UniProt P28221); experiment: Displacement of [3H]5-HT from human cloned 5HT1D receptor expressed in CHO cells; type: cell-based
Chain of 5-hydroxytryptamine receptor 1D (P28221 whole entry): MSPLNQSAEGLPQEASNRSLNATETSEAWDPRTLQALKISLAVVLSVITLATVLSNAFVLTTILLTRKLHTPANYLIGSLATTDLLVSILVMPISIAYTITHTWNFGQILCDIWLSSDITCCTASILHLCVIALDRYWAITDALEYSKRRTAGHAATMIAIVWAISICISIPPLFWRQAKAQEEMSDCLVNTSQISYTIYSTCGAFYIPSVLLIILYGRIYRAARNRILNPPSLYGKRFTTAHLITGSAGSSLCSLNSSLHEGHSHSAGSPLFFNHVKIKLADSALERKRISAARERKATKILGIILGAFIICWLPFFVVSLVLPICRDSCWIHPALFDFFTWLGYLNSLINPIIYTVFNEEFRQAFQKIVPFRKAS

[6] = biological target: 5-hydroxytryptamine receptor 1B (Homo sapiens, UniProt P28222); experiment: Displacement of [3H]5-HT from human cloned 5HT1B receptor expressed in CHO cells; type: cell-based
Chain of 5-hydroxytryptamine receptor 1B (P28222 whole entry): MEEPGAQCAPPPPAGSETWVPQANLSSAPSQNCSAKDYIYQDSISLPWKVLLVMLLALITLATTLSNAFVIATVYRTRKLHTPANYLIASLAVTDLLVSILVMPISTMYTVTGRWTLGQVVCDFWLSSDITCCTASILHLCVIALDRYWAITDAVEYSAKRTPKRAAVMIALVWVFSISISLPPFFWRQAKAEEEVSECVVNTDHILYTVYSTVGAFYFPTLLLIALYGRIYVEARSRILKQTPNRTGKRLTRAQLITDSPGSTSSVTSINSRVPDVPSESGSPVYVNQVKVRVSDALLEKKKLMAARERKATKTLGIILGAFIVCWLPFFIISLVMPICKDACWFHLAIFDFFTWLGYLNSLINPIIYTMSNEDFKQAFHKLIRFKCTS

[7] = biological target: T2, 5-hydroxytryptamine receptor 1A (Homo sapiens) (UniProt P08908); experiment: Intrinsic activity at 5HT1A receptor expressed in HEK293 cells relative to 5HT by [35S]GTPgammaS binding assay; type: functional, cell-based
T2 sequence (whole entry): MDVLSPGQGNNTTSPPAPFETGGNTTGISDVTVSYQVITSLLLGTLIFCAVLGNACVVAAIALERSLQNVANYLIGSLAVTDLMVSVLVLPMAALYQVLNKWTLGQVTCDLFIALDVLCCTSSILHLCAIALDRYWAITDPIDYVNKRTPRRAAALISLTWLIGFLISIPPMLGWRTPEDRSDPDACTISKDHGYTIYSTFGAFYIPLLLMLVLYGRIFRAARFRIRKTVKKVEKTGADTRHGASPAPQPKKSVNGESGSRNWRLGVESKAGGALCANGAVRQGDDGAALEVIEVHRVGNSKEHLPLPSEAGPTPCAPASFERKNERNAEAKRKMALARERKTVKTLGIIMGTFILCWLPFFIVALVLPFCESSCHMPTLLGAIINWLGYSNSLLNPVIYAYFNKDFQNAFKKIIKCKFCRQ

[8] = Blood clearance in rat at 3 mg/kg, po; type: ADME, organism-based; set-up: dose 3 mg/kg, route oral; settings: whole blood
Rattus norvegicus [9] = organism: Rattus norvegicus; experiment: Ex vivo displacement of [3H]8-OH DPAT from 5HT1A receptor in rat cortex; type: functional, organism-based
Homo sapiens [10] = organism: Homo sapiens; experiment: Selectivity for human 5TH1A over human 5HT1B
Rattus norvegicus [11] = experiment: Attenuation of 8-OH DPAT induced locomotor activity in po dosed rat; type: functional
[12] = Oral bioavailability in rat at 3 mg/kg, po; type: ADME, organism-based; settings: in vivo
[13] = Agonist activity at guinea pig 5HT1A receptor; type: functional, Cavia porcellus
Homo sapiens [14] = organism: Homo sapiens; experiment: Selectivity for human 5TH1A over human 5HT1D
[15] = biological target: 5-hydroxytryptamine receptor 7 (Homo sapiens, UniProt P34969); experiment: Displacement of [3H]5CT from human cloned 5HT7a receptor expressed in HEK293 cells; type: cell-based
Chain of 5-hydroxytryptamine receptor 7 (P34969 whole entry): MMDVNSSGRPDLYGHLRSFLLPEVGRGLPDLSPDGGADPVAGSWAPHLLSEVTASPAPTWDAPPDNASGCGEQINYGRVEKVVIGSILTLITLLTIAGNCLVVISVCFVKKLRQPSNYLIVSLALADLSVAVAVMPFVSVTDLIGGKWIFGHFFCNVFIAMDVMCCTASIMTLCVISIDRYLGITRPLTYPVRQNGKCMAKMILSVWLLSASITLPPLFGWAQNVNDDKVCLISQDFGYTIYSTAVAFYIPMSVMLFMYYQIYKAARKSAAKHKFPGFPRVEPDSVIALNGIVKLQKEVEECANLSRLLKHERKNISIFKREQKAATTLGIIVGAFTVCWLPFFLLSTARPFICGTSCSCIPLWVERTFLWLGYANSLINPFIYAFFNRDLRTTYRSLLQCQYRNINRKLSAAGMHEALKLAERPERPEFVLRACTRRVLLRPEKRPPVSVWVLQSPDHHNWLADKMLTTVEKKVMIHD

[16] = biological target: 5-hydroxytryptamine receptor 2A (Homo sapiens, UniProt P28223); experiment: Displacement of [3H]ketanserin from human cloned 5HT2A receptor expressed in HEK293 cells; type: cell-based
Chain of 5-hydroxytryptamine receptor 2A (P28223 whole entry): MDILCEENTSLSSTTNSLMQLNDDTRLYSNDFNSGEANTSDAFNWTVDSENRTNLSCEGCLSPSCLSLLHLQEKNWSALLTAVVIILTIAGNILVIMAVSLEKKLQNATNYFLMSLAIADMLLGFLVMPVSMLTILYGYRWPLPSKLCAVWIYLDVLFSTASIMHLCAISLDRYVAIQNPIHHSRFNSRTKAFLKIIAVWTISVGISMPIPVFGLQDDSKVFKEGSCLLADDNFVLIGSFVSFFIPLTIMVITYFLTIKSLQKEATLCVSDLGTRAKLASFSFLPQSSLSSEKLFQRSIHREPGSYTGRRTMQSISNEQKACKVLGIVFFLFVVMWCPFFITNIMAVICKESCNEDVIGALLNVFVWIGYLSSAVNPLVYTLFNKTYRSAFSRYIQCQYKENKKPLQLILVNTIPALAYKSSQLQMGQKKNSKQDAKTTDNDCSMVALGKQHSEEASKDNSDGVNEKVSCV

[17] = biological target: 5-hydroxytryptamine receptor 2B (Homo sapiens, UniProt P41595); experiment: Displacement of [3H]5-HT from human cloned 5HT2B receptor expressed in HEK293 cells; type: cell-based
Chain of 5-hydroxytryptamine receptor 2B (P41595 whole entry): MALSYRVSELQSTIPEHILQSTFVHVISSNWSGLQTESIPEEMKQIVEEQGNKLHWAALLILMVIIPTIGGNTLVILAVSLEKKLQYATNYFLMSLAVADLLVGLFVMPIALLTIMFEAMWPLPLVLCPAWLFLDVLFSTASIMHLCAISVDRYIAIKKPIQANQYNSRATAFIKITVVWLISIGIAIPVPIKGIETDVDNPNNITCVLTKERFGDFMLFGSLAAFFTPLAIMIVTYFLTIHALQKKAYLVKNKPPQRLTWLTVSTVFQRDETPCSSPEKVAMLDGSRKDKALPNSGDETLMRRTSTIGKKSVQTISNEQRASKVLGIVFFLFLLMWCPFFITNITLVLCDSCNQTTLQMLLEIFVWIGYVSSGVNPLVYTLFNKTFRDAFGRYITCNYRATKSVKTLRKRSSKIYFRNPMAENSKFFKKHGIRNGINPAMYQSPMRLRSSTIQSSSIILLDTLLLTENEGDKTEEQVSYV

Rattus norvegicus [18] = experiment: Ex vivo displacement of [3H]8-OH DPAT from 5HT1A receptor in rat cortex at 1 mg/kg, po; type: functional
Rattus norvegicus [19] = organism: Rattus norvegicus; experiment: Ex vivo displacement of [3H]WAY-100635 from 5HT1A receptor in rat cortex; type: functional, organism-based
[20] = biological target: T3, 5-hydroxytryptamine receptor 1A (Homo sapiens, UniProt P08908); experiment: Displacement of [3H]WAY-100635 from human cloned 5HT1A receptor expressed in CHO cells; type: cell-based
T3 sequence (P08908 whole entry): T2 sequence (whole entry)

[21] = biological target: Alpha-1B adrenergic receptor (Homo sapiens) (UniProt P35368); experiment: Binding affinity at adrenergic alpha 1b receptor
Chain of Alpha-1B adrenergic receptor (Homo sapiens) (P35368 whole entry, looked up): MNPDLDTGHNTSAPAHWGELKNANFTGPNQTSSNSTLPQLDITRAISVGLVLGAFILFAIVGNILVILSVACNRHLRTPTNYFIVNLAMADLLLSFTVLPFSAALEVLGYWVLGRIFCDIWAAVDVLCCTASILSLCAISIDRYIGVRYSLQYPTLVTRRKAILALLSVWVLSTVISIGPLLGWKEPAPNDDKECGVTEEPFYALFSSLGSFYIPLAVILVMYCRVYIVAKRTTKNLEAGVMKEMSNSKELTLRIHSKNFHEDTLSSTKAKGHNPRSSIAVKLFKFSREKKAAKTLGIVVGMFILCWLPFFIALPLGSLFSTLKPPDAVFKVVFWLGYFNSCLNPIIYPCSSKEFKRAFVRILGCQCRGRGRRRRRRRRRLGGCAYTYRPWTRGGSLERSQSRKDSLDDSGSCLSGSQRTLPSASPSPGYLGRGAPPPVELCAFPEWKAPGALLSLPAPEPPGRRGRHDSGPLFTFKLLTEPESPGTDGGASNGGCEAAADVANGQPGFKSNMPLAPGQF

[22] = Selectivity for rat SERT over human 5HT1D
D(3) dopamine receptor = D(3) dopamine receptor (Homo sapiens, UniProt P35462); experiment: Displacement of [125I]iodosulpiride from human cloned D3 receptor expressed in CHO cells; type: cell-based
Chain of D(3) dopamine receptor (P35462 whole entry): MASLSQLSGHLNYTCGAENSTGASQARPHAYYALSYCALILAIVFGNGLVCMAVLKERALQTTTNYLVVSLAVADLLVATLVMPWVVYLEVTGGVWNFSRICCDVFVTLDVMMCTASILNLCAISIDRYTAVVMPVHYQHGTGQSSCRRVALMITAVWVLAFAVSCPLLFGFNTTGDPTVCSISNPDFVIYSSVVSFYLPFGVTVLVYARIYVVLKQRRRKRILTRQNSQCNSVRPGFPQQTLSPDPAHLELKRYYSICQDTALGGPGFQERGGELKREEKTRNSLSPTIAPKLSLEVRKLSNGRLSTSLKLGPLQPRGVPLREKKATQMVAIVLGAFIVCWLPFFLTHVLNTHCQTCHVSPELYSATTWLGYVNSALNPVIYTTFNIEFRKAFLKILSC

[23] = biological target: 5-hydroxytryptamine receptor 6 (Homo sapiens, UniProt P50406); experiment: Displacement of [3H]LSD from human cloned 5HT6 receptor expressed in HeLa cells; type: cell-based
Chain of 5-hydroxytryptamine receptor 6 (P50406 whole entry): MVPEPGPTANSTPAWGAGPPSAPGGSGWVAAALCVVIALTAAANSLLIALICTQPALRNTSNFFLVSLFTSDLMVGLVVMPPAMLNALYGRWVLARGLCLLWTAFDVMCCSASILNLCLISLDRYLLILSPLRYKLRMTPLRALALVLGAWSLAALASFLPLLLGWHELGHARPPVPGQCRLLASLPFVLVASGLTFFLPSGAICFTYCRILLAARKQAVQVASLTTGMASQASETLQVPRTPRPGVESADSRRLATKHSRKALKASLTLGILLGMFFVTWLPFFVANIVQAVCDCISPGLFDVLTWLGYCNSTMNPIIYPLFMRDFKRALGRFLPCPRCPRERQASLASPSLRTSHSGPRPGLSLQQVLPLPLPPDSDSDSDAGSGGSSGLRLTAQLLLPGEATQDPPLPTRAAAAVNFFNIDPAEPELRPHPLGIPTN

[24] = Selectivity for rat SERT over human 5HT1B
Rattus norvegicus [25] = experiment: Ex vivo displacement of [3H]WAY-100635 from 5HT1A receptor in rat cortex at 1 mg/kg, po; type: functional
[26] = biological target: Sodium-dependent serotonin transporter (Rattus norvegicus, UniProt P31652); experiment: Inhibition of [3H]5-HT uptake at SERT in rat cortical synaptosomes; type: subcellular, Brain
Chain of Sodium-dependent serotonin transporter (P31652 whole entry): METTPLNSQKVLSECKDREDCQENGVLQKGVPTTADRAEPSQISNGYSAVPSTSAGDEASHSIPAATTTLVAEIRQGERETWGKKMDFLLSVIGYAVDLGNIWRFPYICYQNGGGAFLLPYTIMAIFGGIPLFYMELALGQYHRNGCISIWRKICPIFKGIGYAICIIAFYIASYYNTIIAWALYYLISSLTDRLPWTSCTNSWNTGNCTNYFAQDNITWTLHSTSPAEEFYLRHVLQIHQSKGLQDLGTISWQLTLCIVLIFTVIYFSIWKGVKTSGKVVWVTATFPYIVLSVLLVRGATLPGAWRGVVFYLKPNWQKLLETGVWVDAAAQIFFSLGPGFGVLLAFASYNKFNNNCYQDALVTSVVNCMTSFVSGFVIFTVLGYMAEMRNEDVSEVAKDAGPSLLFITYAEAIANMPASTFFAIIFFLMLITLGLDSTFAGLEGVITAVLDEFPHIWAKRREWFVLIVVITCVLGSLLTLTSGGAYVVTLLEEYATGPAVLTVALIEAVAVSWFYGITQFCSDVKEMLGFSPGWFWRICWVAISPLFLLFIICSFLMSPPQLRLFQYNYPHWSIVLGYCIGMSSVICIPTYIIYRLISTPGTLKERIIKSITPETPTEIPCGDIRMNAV

[27] = biological target: T4, 5-hydroxytryptamine receptor 2C (Homo sapiens, UniProt P28335); experiment: Displacement of [3H]mesulergine from human cloned 5HT2C receptor expressed in HEK293 cells; type: cell-based
T4 sequence (P28335 whole entry): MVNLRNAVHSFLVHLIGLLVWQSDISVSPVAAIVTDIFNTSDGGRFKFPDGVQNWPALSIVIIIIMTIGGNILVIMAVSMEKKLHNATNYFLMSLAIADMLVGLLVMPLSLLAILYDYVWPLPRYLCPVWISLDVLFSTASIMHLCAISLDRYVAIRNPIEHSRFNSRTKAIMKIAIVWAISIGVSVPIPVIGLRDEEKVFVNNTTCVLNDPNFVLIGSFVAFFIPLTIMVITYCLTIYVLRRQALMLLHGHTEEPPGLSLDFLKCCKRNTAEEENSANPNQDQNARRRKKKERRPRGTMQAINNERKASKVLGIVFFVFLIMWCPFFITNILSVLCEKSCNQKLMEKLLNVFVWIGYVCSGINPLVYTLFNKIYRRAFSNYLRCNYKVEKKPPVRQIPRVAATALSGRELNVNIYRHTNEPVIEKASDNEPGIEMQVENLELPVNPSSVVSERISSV

Rattus norvegicus [28] = experiment: Effect on locomotor activity in rat up to 10 mg/kg

| SMILES | Log Ki [1] | ED50 (Rattus norvegicus [2]) [mg/kg] | Ki [3] [µM] | Ki (D(2) dopamine receptor) [µM] | Ki [5] [µM] | Ki [6] [µM] | Intrinsic activity [7] | CL/F [8] [mL/min/kg] | Activity (Rattus norvegicus [9]) | Selectivity ratio (Homo sapiens [10]) | ED50 (Rattus norvegicus [11]) [mg/kg] | bioavailability [12] [%] | Log Ki [13] | Selectivity ratio (Homo sapiens [14]) | Ki [15] [µM] | Ki [16] [µM] | inhibition in vivo at 1 mg/kg (Rattus norvegicus [18]) [%] | Activity (Rattus norvegicus [19]) | Ki [20] [µM] | Ki [21] [µM] | further results |
| --- | --- | --- | --- | --- | --- | --- | --- | --- | --- | --- | --- | --- | --- | --- | --- | --- | --- | --- | --- | --- | --- |
| Cc1ccc2c(OCCN3CCC(Cc4cc5c(cc4F)OCC(=O)N5)CC3)cc(F)cc2n1 | > -9 | 3 | > 0.001 | 2 | 0.251 | 1 | 0 | 19 | Dose-dependent effect | 100 | < 1 | 54 | > -9 | 100 | 0.0398 | 2 | 50 | Dose-dependent effect | 0.000398 | 0.794 | Kp [4]: 1.2; Ki [17]: 1 µM; Selectivity ratio [22]: 100; Ki (D(3) dopamine receptor): 0.501 µM; Ki [23]: > 1 µM; Selectivity ratio [24]: 100; inhibition in vivo at 1 mg/kg (Rattus norvegicus [25]): 50%; Ki [26]: 0.00794 µM; Ki [27]: 1.26 µM |
| Cc1ccc2c(OCCN3CCC(Cc4cc5c(cc4F)OCC(=O)N5)CC3)cc(Cl)cc2n1 | > -9 | 3 | > 0.001 | 3.16 | 0.794 | 2 | 0 | 18 | Dose-dependent effect | 100 | 3 | 60 | > -9 | 100 | 0.0398 | > 10 | 50 | Dose-dependent effect | 0.00251 | 2.51 | Log Ki ([17]; hek293): > -6; Selectivity ratio [22]: 100; Ki (D(3) dopamine receptor): 2 µM; Ki [23]: 7.94 µM; Selectivity ratio [24]: 100; inhibition in vivo at 1 mg/kg (Rattus norvegicus [25]): 50%; Ki [26]: 0.0158 µM; Activity (Rattus norvegicus [28]): inactive; Ki [27]: > 5.01 µM |

Reference: ChEMBL document CHEMBL1139046, “3,4-Dihydro-2H-benzoxazinones as dual-acting 5-HT1A receptor antagonists and serotonin reuptake inhibitors” (Bioorg Med Chem Lett, 2007)
